Assay results: PubChem BioAssay (NCI)
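Cells were grown in 96-well plates and exposed to each compound for 48 hours at five concentrations; endpoints were interpolated linearly between bracketing concentrations, or set to the highest concentration if not reached. Here, GI50 denotes the concentration required for 50% inhibition of growth. TGI: total growth inhibition.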

How the values were obtained:
Test in all cases: inhibition of tumour cell growth, NCI panel, 48 h
786-0 renal = system: 786-0 renal
A498 renal = system: A498 renal
A549 NSCLC = system: A549 NSCLC
ACHN renal = system: ACHN renal
BT-549 breast = system: BT-549 breast
CAKI-1 renal = system: CAKI-1 renal
CCRF-CEM leukemia = system: CCRF-CEM leukemia
COLO 205 colon = system: COLO 205 colon
DU-145 prostate = system: DU-145 prostate
EKVX NSCLC = system: EKVX NSCLC
HCC-2998 colon = system: HCC-2998 colon
HCT-116 colon = system: HCT-116 colon
HCT-15 colon = system: HCT-15 colon
HL-60(TB) leukemia = system: HL-60(TB) leukemia
HOP-62 NSCLC = system: HOP-62 NSCLC
HS 578T breast = system: HS 578T breast
HT29 colon = system: HT29 colon
IGROV1 ovarian = system: IGROV1 ovarian
K-562 leukemia = system: K-562 leukemia
KM12 colon = system: KM12 colon
LOX IMVI melanoma = system: LOX IMVI melanoma
M14 melanoma = system: M14 melanoma
MALME-3M melanoma = system: MALME-3M melanoma
MCF7 breast = system: MCF7 breast
MDA-MB-231 breast = system: MDA-MB-231 breast
MDA-MB-435 = system: MDA-MB-435
MDA-MB-468 breast = system: MDA-MB-468 breast
MOLT-4 leukemia = system: MOLT-4 leukemia
NCI-H226 lung = system: NCI-H226 lung
NCI-H23 lung = system: NCI-H23 lung
NCI-H460 lung = system: NCI-H460 lung
NCI-H522 lung = system: NCI-H522 lung
NCI/ADR-RES ovarian = system: NCI/ADR-RES ovarian
OVCAR-3 ovarian = system: OVCAR-3 ovarian
OVCAR-4 ovarian = system: OVCAR-4 ovarian
OVCAR-5 ovarian = system: OVCAR-5 ovarian
OVCAR-8 ovarian = system: OVCAR-8 ovarian
PC-3 prostate = system: PC-3 prostate
RPMI-8226 leukemia = system: RPMI-8226 leukemia
RXF 393 renal = system: RXF 393 renal
SF-268 CNS = system: SF-268 CNS
SF-295 CNS = system: SF-295 CNS
SF-539 CNS = system: SF-539 CNS
SK-MEL-2 melanoma = system: SK-MEL-2 melanoma
SK-MEL-28 melanoma = system: SK-MEL-28 melanoma
SK-MEL-5 melanoma = system: SK-MEL-5 melanoma
SK-OV-3 ovarian = system: SK-OV-3 ovarian
SN12C renal = system: SN12C renal
SNB-19 CNS = system: SNB-19 CNS
SR leukemia = system: SR leukemia
SW-620 colon = system: SW-620 colon
T-47D breast = system: T-47D breast
TK-10 renal = system: TK-10 renal
U251 CNS = system: U251 CNS
UACC-257 melanoma = system: UACC-257 melanoma
UACC-62 melanoma = system: UACC-62 melanoma
UO-31 renal = system: UO-31 renal

With COc1ccc(C(=O)/C=C/c2cccnc2)cc1S(N)(=O)=O the GI50 (786-0 renal) was 11.2 µM, the TGI (786-0 renal) was 24.1 µM and the GI50 (A498 renal) was 21.7 µM. It also gave a TGI (A498 renal) of 53.6 µM, a GI50 (A549 NSCLC) of 13.8 µM and a TGI (A549 NSCLC) of 33.9 µM. For the same compound, the GI50 (ACHN renal) was 13.5 µM, the TGI (ACHN renal) was 25.5 µM and the GI50 (BT-549 breast) was 12.9 µM. The TGI (BT-549 breast) was 25.4 µM, the GI50 (CAKI-1 renal) was 12.7 µM and the TGI (CAKI-1 renal) was 24.9 µM. The GI50 (CCRF-CEM leukemia) was 12.6 µM, the TGI (CCRF-CEM leukemia) was 33.2 µM and the GI50 (COLO 205 colon) was 13.7 µM. It also gave a TGI (COLO 205 colon) of 29.8 µM, a GI50 (DU-145 prostate) of 11.2 µM and a TGI (DU-145 prostate) of 22.6 µM. For the same compound, the GI50 (EKVX NSCLC) was 11.9 µM, the TGI (EKVX NSCLC) was 24.2 µM and the GI50 (HCC-2998 colon) was 13.9 µM. The TGI (HCC-2998 colon) was 26.1 µM, the GI50 (HCT-116 colon) was 3.18 µM and the TGI (HCT-116 colon) was 11.7 µM. For the same compound, the GI50 (HCT-15 colon) was 4.18 µM, the TGI (HCT-15 colon) was 16.7 µM and the GI50 (HL-60(TB) leukemia) was 11 µM. For the same compound, the TGI (HL-60(TB) leukemia) was 32.7 µM, the GI50 (HOP-62 NSCLC) was 15.6 µM and the TGI (HOP-62 NSCLC) was 33 µM. The GI50 (HS 578T breast) was 21.1 µM, the TGI (HS 578T breast) was 65.6 µM and the GI50 (HT29 colon) was 5.49 µM. The TGI (HT29 colon) was 21.2 µM, the GI50 (IGROV1 ovarian) was 12.4 µM and the TGI (IGROV1 ovarian) was 24.7 µM. For the same compound, the GI50 (K-562 leukemia) was 2920 nM, the TGI (K-562 leukemia) was 20.5 µM and the GI50 (KM12 colon) was 3.8 µM. The TGI (KM12 colon) was 14.4 µM, the GI50 (LOX IMVI melanoma) was 4.63 µM and the TGI (LOX IMVI melanoma) was 16.1 µM. The GI50 (M14 melanoma) was 14.3 µM, the TGI (M14 melanoma) was 29 µM and the GI50 (MALME-3M melanoma) was 14.2 µM. The TGI (MALME-3M melanoma) was 27.1 µM, the GI50 (MCF7 breast) was 4.87 µM and the TGI (MCF7 breast) was 18.5 µM. It also gave a GI50 (MDA-MB-231 breast) of 13.4 µM, a TGI (MDA-MB-231 breast) of 25.5 µM and a GI50 (MDA-MB-435) of 14.4 µM. For the same compound, the TGI (MDA-MB-435) was 31.1 µM, the GI50 (MDA-MB-468 breast) was 7.1 µM and the TGI (MDA-MB-468 breast) was 20.1 µM. For the same compound, the GI50 (MOLT-4 leukemia) was 3.5 µM, the TGI (MOLT-4 leukemia) was 15.1 µM and the GI50 (NCI-H226 lung) was 14.4 µM. The TGI (NCI-H226 lung) was 32.3 µM, the GI50 (NCI-H23 lung) was 12 µM and the TGI (NCI-H23 lung) was 24.1 µM. The GI50 (NCI-H460 lung) was 9.17 µM, the TGI (NCI-H460 lung) was 44.9 µM and the GI50 (NCI-H522 lung) was 10.5 µM. It also gave a TGI (NCI-H522 lung) of 24.1 µM, a GI50 (NCI/ADR-RES ovarian) of 23.4 µM and a TGI (NCI/ADR-RES ovarian) of 90.2 µM. For the same compound, the GI50 (OVCAR-3 ovarian) was 10.3 µM, the TGI (OVCAR-3 ovarian) was 21.6 µM and the GI50 (OVCAR-4 ovarian) was 16.3 µM. It also gave a TGI (OVCAR-4 ovarian) of 36 µM, a GI50 (OVCAR-5 ovarian) of 11.9 µM and a TGI (OVCAR-5 ovarian) of 23.5 µM. For the same compound, the GI50 (OVCAR-8 ovarian) was 15.1 µM, the TGI (OVCAR-8 ovarian) was 35.6 µM and the GI50 (PC-3 prostate) was 16.5 µM. The TGI (PC-3 prostate) was 33.2 µM, the GI50 (RPMI-8226 leukemia) was 9.08 µM and the TGI (RPMI-8226 leukemia) was 28.2 µM. For the same compound, the GI50 (RXF 393 renal) was 12.3 µM, the TGI (RXF 393 renal) was 24.7 µM and the GI50 (SF-268 CNS) was 13.6 µM. It also gave a TGI (SF-268 CNS) of 31.6 µM, a GI50 (SF-295 CNS) of 12.8 µM and a TGI (SF-295 CNS) of 25.2 µM. It also gave a GI50 (SF-539 CNS) of 4.32 µM, a TGI (SF-539 CNS) of 15.7 µM and a GI50 (SK-MEL-2 melanoma) of 19.4 µM. The TGI (SK-MEL-2 melanoma) was 49.7 µM, the GI50 (SK-MEL-28 melanoma) was 14.9 µM and the TGI (SK-MEL-28 melanoma) was 27.5 µM. It also gave a GI50 (SK-MEL-5 melanoma) of 14.8 µM, a TGI (SK-MEL-5 melanoma) of 27.3 µM and a GI50 (SK-OV-3 ovarian) of 16.7 µM. The TGI (SK-OV-3 ovarian) was 31.1 µM, the GI50 (SN12C renal) was 7.37 µM and the TGI (SN12C renal) was 18.8 µM. For the same compound, the GI50 (SNB-19 CNS) was 13.4 µM, the TGI (SNB-19 CNS) was 25.4 µM and the GI50 (SR leukemia) was 1830 nM. For the same compound, the TGI (SR leukemia) was 6.68 µM, the GI50 (SW-620 colon) was 6.38 µM and the TGI (SW-620 colon) was 29.5 µM. For the same compound, the GI50 (T-47D breast) was 8.86 µM, the TGI (T-47D breast) was 25.6 µM and the GI50 (TK-10 renal) was 13.9 µM. It also gave a TGI (TK-10 renal) of 26.6 µM, a GI50 (U251 CNS) of 7.44 µM and a TGI (U251 CNS) of 26.7 µM. For the same compound, the GI50 (UACC-257 melanoma) was 15.7 µM, the TGI (UACC-257 melanoma) was 32.2 µM and the GI50 (UACC-62 melanoma) was 12.8 µM. The TGI (UACC-62 melanoma) was 24.7 µM, the GI50 (UO-31 renal) was 6.05 µM and the TGI (UO-31 renal) was 18.5 µM.
